Key:
[1] = tested on: GPX4^low NCI-H226 cells; test: Cell viability / cell death (ferroptosis) in NCI-H226 cells; assay type: cell-based, human; details: BQR; pretreatment Lip-1 or ZVF 10 μM, 24 hours
Experimental: Viable cells were measured using Cell Counting Kit-8 (CCK-8, Dojindo) as previously described (Koppula, P., Zhang, Y., Shi, J., Li, W. & Gan, B, J Biol Chem 292, 14240-14249 (2017); Liu, X. & Gan, B, Cell Cycle 15, 3471-3481 (2016)). Briefly, cells were seeded onto 96-well plates at a density of 2×10^4 per well. The next day, cells were treated with GPX4 or DHODH inhibitors for 4 hours. Subsequently, cells exposed to 10 μl CCK-8 reagent (100 μl medium per well) for 1 hour at 37° C., 5% CO2 in an incubator. The absorbance at a wavelength of 450 nm was determined using a FLUOstar Omega microplate reader (BMG Labtech).
Cell death was measured by propidium iodide (Roche) staining using a flow cytometer, as previously described (Dai, F., et al., Proc Natl Acad Sci USA 114, 3192-3197 (2017); Zhang, Y., et al., Cancer Res 80, 2243-2256 (2020)). For propidium iodide-staining, cells were seeded at a density of 50% confluence into 12-well plates. The next day, cells were treated with different reagents. To measure cell death, the cells were collected (including floating dead cells), stained with 5 μg/ml propidium iodide and the percentage of the propidium iodide-positive dead cell population was analyzed using the flow cytometer BD Accuri C6 (BD Biosciences) and an FL2 detector. A minimum of 10,000 single cells were analyzed per well and all experiments were carried out at least in triplicate.

[2] = tested on: HT-1080 xenograft tumors; test: HT-1080 cell line-derived xenograft model; assay type: in vivo, athymic nude mice; details: liproxstatin-1 10 mg/kg intraperitoneally daily
Experimental: Fresh tumor tissues were fixed in 10% neutral buffered formalin overnight, washed once with PBS, and stored in 70% ethanol at 4° C. The tissues were dehydrated and embedded in paraffin by the Research Histology Core Laboratory (MD Anderson Cancer Center) according to standard protocols. Embedded tissues were sectioned at a thickness of 5 μm for H&E or immunohistochemistry (IHC) analysis. IHC analysis was performed as previously described (Gan, B., et al., Cancer Cell 18, 472-484 (2010); Gan, B., et al., J Cell Biol 175, 121-133 (2006)). Briefly, the primary antibodies, including ki-67 (1:500, 9027s, Cell Signaling Technology), cleaved-caspase 3 (1:500, 9661s, Cell Signaling Technology), or 4-HNE (1:400, ab46545, Abcam) were incubated overnight at 4° C. Staining was performed using the Vectastain elite ABC kit and DAB peroxidase substrate kit (Vector laboratories). Images were randomly taken from the […] (five images per tumor) at ×200 magnification using an Olympus BX43 microscope. All the xenograft experiments were performed in accordance with a protocol approved by the Institutional Animal Care and Use Committee and Institutional Review Board at The University of Texas MD Anderson Cancer Center. The study is compliant with all relevant ethical regulations regarding animal research. Female 4- to 6-week-old athymic nude mice (Foxn1^nu/Foxn1^nu) were purchased from the Experimental Radiation Oncology Breeding Core Facility at MD Anderson Cancer Center and housed in the Animal Care Facility at the Department of Veterinary Medicine and Surgery at MD Anderson. Cancer cell lines were suspended and counted in cold phosphate-buffered saline (PBS), and 5×10^6 HT-1080 or 1×10^7 NCI-H226 cells were injected into mice subcutaneously. When the tumor reached 50-100 mm^3, the mice were assigned randomly into different treatment groups. Brequinar or sulfasalazine was dissolved in dimethyl sulfoxide (DMSO) and diluted in PBS. Brequinar was intraperitoneally injected into mice at a dose of 30 mg/kg every three days. Sulfasalazine was intraperitoneally injected daily at a dose of 100 mg/kg. Liproxstatin-1 diluted in PBS was intraperitoneally injected daily at a dose of 10 mg/kg. The daily injection of brequinar, sulfasalazine, or liproxstatin-1 was continued until the endpoint as indicated in the corresponding figures. The tumor volume was measured every 3 days until the endpoint and calculated according to the equation volume=length×width^2×½.

[3] = tested on: GPX4^low patient-derived xenografts (PDXs); test: GPX4^low patient-derived xenograft model; assay type: in vivo, NSG mice; details: liproxstatin-1 10 mg/kg intraperitoneally daily
Source text: PDXs were generated in accordance with protocols approved by the Institutional Review Board at The University of Texas MD Anderson Cancer Center. Informed consent was obtained from the patients and the study is compliant with all relevant ethical regulations regarding research involving human participants. All the NOD scid gamma (NSG) mice were purchased from the Experimental Radiation Oncology Breeding Core Facility at MD Anderson Cancer Center and housed in the Animal Care Facility at the Department of Veterinary Medicine and Surgery at MD Anderson Cancer Center. PDX model used in this study was originally obtained from lung cancer PDX platform at MD Anderson Cancer Center. PDX experiments were performed as previously described (Liu, X., et al., Nat Cell Biol 22, 476-486 (2020)). Briefly, PDX tumors in cold DMEM media were minced into fragments 1-2 mm^3 in volume. Then each PDX tumor fragment was subcutaneously inoculated into the dorsal flank of NSG mice. When the tumors reached 50-100 mm 3 in volume, the mice were assigned randomly into different treatment groups for the treatment of brequinar, sulfasalazine, and/or liproxstatin-1 as described under cell line-derived xenograft model. The tumor volume was measured every 3 days until the endpoint and calculated according to the equation volume=length×width^2×½.

[4] = tested on: GPX4^high HT-1080 cells; test: Cell viability / cell death (ferroptosis) in HT-1080 cells; assay type: cell-based, human; details: 24 hours
In short: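 HT-1080 cells were exposed to GPX4 or DHODH inhibitors for 4 h, and viability was then read by CCK-8 absorbance at 450 nm after 1 h at 37 °C. Separately, cell death was scored as the propidium iodide-positive fraction (5 μg/ml) by flow cytometry, ≥10,000 cells per well.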

SMILES: Clc1cccc(CN=C2Nc3ccccc3NC23CCNCC3)c1 [liproxstatin-1]
- rescue of DHODH inhibition-induced cell death [1]: largely rescued
- restoration of tumor growth suppressed by brequinar and sulfasalazine [2]: largely restored
- restoration of brequinar-suppressed tumor growth [3]: could be restored
- rescue of DHODH inhibition-induced cell death ([4]; BQR, pretreatment Lip-1 or ZVF 10 μM): the opposite was observed
- protection against GPX4 inhibition (RSL3 or ML162)-induced ferroptosis ([4]; DHODH WT, pretreatment 10 μM): rescued

From US20240148757A1, “USE OF DIHYDROOROTATE DEHYDROGENASE (DHODH) INHIBITORS TO TARGET FERROPTOSIS IN CANCER THERAPY” (BOARD OF REGENTS, THE UNIVERSITY OF TEXAS SYSTEM, priority 2021, published 2024)
